{"source": "patent US20130096170A1", "about": "(priority 2011, published 2013)", "test_system": "prenatal Cynomolgus monkey brains (frontal cortex)", "key": {"[1]": {"details": "Group 2, 20 mg/kg im + 20-50 mg/kg/hr, 5 fetal brains examined"}}, "note": "“Also recorded” adds a separate entry of the source.", "data": [{"smiles": "CNC1(c2ccccc2Cl)CCCCC1=O", "note": "(centres unmarked) [ketamine]", "values": [{"measurement": "Severity scoring of neuroapoptotic lesions, Activated caspase 3", "setting": "[1]", "value": "3.5 ± 0.7"}, {"measurement": "Severity scoring of neuroapoptotic lesions, HE", "setting": "[1]", "value": "1.9 ± 1.2"}, {"measurement": "Severity scoring of neuroapoptotic lesions, Silver", "setting": "[1]", "value": "2.0 ± 0.8"}, {"measurement": "Severity scoring of neuroapoptotic lesions, TUNEL", "setting": "[1]", "value": "2.9 ± 1.1"}, {"measurement": "neuroapoptotic lesions / damaged and apoptotic cells in fetal frontal cortex", "setting": "Group 2: 20 mg/kg IM+20-50 mg/kg/hr ketamine to pregnant monkeys, H&E, silver, TUNEL, AC3", "value": "abundant neuroapoptotic lesions; also recorded: moderate to large number of damaged and apoptotic cells; also recorded: marked neuroapoptosis and cellular damage with necrosis"}]}]}
